Assay results reported in patent EP0364819A2, “LHRH analogs” (The Administrators of The Tulane Educational Fund, priority 1988, dated 1990).

Assays:
[1] = tested on: dispersed rat pituitary cell superfusion system; test: LH release in dispersed rat pituitary cell superfusion system (LHRH agonistic activity); assay type: cell-based; conditions: peptide infused for 3 minutes at various concentration; LH released compared to that released by 3 nM LHRH
Procedure: The ability of compounds to influence LH release in vitro is assayed by using a superfused rat pituitary cell system [S. Vigh and A. V. Schally, Peptides, 5 Suppl.
The peptide was infused for 3 minutes at various concentration, and the amount of LH released was compared to that released by 3 nM LHRH.

[2] = biological target: T1, membrane receptors of rat pituitary (Rattus norvegicus, UniProt P30969); test: Receptor binding to rat pituitary membranes with 125I-labeled [D-Trp6]LHRH; conditions: high affinity binding sites, pituitary of male rats, ¹²⁵l-labeled [D-Trp⁶]LHRH
T1 construct: membrane receptors of rat pituitary; from tissue; host or cells: rat pituitary membranes
T1 sequence (P30969 1-327): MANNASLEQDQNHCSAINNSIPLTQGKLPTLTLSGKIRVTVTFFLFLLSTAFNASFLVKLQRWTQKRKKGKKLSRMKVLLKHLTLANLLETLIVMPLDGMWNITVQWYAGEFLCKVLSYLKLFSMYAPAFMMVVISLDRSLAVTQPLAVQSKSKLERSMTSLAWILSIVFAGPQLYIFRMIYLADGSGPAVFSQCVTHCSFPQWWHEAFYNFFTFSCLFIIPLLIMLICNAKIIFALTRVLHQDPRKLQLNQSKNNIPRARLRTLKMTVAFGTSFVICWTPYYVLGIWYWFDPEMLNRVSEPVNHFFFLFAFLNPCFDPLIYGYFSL
Procedure: (§1) This is determined by using labelled LHRH and [D-Trp⁶]LHRH. The assay is carried out similarly to that described by T. Kadar et al., Proc. Natl. Acad. Sci. USA, 85, 890-894 (1988).
(§2) Table 2 presents the antiovulatory activity of the claimed compounds having LHRH-inhibiting properties. The inhibitory action was determined in vivo, in 4-day cycling rats as described [A. Corbin and C. W. Beattie, Endocr. Res. Commun., 2, 1-23 (1975)]. Affinities of the claimed compounds to membrane receptors of rat pituitary and human breast cancer cells are also given in Tables 1 and 2 as determined by using [[…],D-Trp⁶]LHRH.

[3] = biological target: T2, membrane receptors of human breast cancer cells (Homo sapiens, UniProt P30968); test: Receptor binding to human breast cancer cell membranes with 125I-labeled [D-Trp6]LHRH; conditions: high affinity binding sites, ¹²⁵l-labeled [D-Trp⁶]LHRH
T2 construct: human prostate and breast cancer cell membranes; endogenous in cells
T2 sequence (P30968 1-328): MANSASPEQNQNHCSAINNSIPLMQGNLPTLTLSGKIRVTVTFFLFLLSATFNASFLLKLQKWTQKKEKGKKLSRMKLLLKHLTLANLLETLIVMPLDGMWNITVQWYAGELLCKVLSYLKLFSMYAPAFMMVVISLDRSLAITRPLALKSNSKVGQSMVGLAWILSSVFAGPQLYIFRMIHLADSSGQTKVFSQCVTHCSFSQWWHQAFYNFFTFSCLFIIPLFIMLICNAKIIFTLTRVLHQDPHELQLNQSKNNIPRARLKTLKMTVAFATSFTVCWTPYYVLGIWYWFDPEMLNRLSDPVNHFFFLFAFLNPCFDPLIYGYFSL
Procedure: (c)Affinity for peptides to human prostate and breast cancer cell membranes.
as §1, §2

[4] = tested on: 4-day cycling rats; test: In vivo antiovulatory activity in 4-day cycling rats; conditions: 4-day cyclic rats
Procedure: This activity of the peptides is determined in 4-day-cycling rats as described [A. Corbin and C. W.Beattie, Endocr. Res. Commun. 2, 1-23(1975)].
as §2

[5] = Table 2, antagonistic analogues

Row | Substance | Hormonal activity* LH responses rel. to LHRH (= 1) [1] | Binding affinity, Ka1, for membrane receptors of pituitary ([2]; Table 1, agonistic analogues) | Binding affinity, Ka1, for membrane receptors of cancer cells ([3]; Table 1, agonistic analogues) | Hormonal activity* %Blockade of ovulation ([4]; Dose 10 µg/rat) | Binding affinity, Ka1, for membrane receptors of pituitary [2, 5] | Binding affinity, Ka1, for membrane receptors of cancer cells [3, 5] | Hormonal activity* %Blockade of ovulation ([4]; Dose 3 µg/rat)
1 | pGlu-His-Trp-Ser-Tyr-D-Lys[Cu⁺⁺)(POLP) ₂(A₂pr)]-Leu-Arg-Pro-Gly-NH₂ [XIX] | 0.3 | 8.676 nM⁻¹ | 4.528 nM⁻¹ | – | – | – | –
2 | Ac-D-Nal(2)-D-Phe(4Cl)-D-Trp-Ser-Arg-D-Lys[(Cu⁺⁺) (POL)₂(DL-A₂pr)]-Leu-Arg-Pro-D-Ala-NH₂ [Example XXIII] | – | – | – | 40% | 7.622 nM-¹ | 3.408 nM-¹ | –
3 | pGlu-His-Trp-Ser-Tyr-D-Lys[(Ni⁺⁺)(SAL)₂(D-A₂pr)]-Leu-Arg-Pro-Gly-NH₂ [VIIIB] | 10 | 6.457 nM⁻¹ | 3.334 nM⁻¹ | – | – | – | –
4 | pGlu-His-Trp-Ser-Tyr-D-Lys[(Cu⁺⁺)(POL)₂(DL-A₂bu)]-Leu-Arg-Pro-Gly-NH₂ [XXV] | 5.5 | 6.405 nM⁻¹ | 3.141 nM⁻¹ | – | – | – | –
5 | Ac-D-Nal(2)-D-Phe(4Cl)-D-Trp-Ser-Arg-D-Lys[(Cu⁺⁺)(SAL)₂(DL-A₂pr)]-Leu-Arg-Pro-D-Ala-NH₂ [XII] | – | – | – | – | 9.183 nM-¹ | 4.951 nM-¹ | 20%
6 | pGlu-His-Trp-Ser-Tyr-D-Lys[(Cu⁺⁺)(SAL)₂(DL-A₂bu)]-Leu-Arg-Pro-Gly-NH₂ [XIV] | 25 | 5.589 nM⁻¹ | 1.628 nM⁻¹ | – | – | – | –
7 | Ac-D-Nal(2)-D-Phe(4Cl)-D-Pal(3)-Ser-Arg-D-Lys[(Cu⁺⁺)(POLP)₂(DL-A₂pr)]-Leu-Arg-Pro-D-Ala-NH₂ [Example XX] | – | – | – | – | 5.250 nM-¹ | 2.436 nM-¹ | 80%
8 | Ac-D-Nal(2)-D-Phe(4Cl)-D-Pal(3)-Ser-Arg-D-Lys[(PtCl₂)-A₂bu-Eac)]-Leu-Arg-Pro-D-Ala-NH₂ [XXVII] | – | – | – | – | – | 2.152 nM-¹ | –
9 | Ac-D-Nal(2)D-Phe(4Cl)-D-Pal(3)-Ser-Arg-D-Lys[(Ni⁺⁺)(SAL)₂(DL-A₂pr)]-Leu-Arg-Pro-D-Ala-NH₂ [XIII] | – | – | – | – | 1.821 nM-¹ | 0.878 nM-¹ | –
10 | pGlu-His-Trp-Ser-Tyr-D-Lys[(Cu⁺⁺)(POLP)₂(DL-A₂bu)]-Leu-Arg-Pro-Gly-NH₂ [Example XVI] | 1.5 | 9.751 nM⁻¹ | 5.038 nM⁻¹ | – | – | – | –
